Results published in ChEMBL document CHEMBL1134688, “Synthesis, biological evaluation, and pharmacophore generation of new pyridazinone derivatives with affinity toward alpha(1)- and alpha(2)-adrenoceptors” (J Med Chem, 2001).

Assays:
[1] = biological target: Adrenergic receptor alpha-2 (Rattus norvegicus) (UniProt P22086+P19328+P22909); test: Ratio of binding affinity towards Alpha-2 and alpha-1 adrenergic receptor; assay type: protein assay
[2] = biological target: T1, Adrenergic receptor alpha-1 (Rattus norvegicus, UniProt P15823+P23944+P43140); test: Binding affinity towards alpha-1 adrenergic receptor in rat cortex membrane using [3H]-prazosin radioligand; assay type: cell membranes
T1 sequence (P15823 whole entry): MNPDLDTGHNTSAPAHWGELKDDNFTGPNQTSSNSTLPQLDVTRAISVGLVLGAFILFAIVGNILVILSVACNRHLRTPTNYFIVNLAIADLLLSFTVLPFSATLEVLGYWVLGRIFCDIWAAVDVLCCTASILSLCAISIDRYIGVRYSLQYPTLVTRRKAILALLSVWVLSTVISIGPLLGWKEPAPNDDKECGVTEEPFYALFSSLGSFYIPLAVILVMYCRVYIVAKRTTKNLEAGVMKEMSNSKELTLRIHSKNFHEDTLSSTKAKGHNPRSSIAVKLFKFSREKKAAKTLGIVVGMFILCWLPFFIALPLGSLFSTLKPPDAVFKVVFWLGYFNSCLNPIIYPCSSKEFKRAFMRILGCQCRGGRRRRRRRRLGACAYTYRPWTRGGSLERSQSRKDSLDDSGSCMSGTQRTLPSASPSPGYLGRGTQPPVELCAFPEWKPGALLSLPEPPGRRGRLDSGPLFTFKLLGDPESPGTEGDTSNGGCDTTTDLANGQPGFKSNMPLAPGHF
T1 sequence (P23944 whole entry): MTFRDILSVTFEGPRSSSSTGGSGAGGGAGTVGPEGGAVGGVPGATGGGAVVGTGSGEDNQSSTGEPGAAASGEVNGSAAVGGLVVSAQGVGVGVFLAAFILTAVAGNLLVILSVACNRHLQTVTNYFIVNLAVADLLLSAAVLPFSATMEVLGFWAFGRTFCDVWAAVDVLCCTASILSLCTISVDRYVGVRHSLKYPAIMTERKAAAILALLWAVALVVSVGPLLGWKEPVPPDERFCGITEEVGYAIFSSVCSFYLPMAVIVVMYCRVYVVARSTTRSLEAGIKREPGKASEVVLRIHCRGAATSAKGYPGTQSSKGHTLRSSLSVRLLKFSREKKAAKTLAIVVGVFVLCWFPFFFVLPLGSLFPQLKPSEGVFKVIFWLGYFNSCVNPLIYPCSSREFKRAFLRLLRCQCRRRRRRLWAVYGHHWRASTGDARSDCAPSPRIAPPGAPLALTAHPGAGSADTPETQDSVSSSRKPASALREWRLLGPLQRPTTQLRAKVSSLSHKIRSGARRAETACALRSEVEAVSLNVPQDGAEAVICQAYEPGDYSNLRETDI
T1 sequence (P43140 whole entry): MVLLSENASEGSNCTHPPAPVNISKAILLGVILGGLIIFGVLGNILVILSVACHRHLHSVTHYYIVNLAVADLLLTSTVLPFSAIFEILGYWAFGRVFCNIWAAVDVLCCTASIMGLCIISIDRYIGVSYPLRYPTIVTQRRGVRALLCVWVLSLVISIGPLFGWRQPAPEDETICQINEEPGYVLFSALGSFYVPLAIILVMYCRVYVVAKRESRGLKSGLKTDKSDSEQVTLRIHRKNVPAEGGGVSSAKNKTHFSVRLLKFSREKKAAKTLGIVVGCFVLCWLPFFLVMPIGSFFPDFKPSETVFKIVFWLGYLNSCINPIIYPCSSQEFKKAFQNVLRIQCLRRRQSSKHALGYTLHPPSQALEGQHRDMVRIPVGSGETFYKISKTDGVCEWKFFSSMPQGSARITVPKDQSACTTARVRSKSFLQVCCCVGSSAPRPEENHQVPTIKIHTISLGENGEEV

[3] = biological target: T2, Adrenergic receptor alpha-2 (Rattus norvegicus, UniProt P22086+P19328+P22909); test: Binding affinity towards alpha-2 adrenergic receptor in rat cortex membrane using [3H]rauwolscine radioligand; assay type: cell membranes
T2 sequence (P22086 whole entry): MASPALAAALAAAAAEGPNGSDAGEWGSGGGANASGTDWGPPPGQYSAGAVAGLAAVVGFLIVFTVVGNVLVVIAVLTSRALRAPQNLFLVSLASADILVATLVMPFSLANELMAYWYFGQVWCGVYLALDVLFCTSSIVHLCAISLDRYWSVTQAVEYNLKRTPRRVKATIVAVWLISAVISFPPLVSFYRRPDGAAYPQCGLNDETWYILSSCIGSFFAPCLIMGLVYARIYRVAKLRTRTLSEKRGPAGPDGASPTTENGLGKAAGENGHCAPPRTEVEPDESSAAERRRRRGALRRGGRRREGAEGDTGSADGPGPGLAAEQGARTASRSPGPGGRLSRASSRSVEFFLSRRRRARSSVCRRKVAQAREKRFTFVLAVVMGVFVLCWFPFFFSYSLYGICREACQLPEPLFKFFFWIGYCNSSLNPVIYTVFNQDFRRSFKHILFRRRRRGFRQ
T2 sequence (P19328 whole entry): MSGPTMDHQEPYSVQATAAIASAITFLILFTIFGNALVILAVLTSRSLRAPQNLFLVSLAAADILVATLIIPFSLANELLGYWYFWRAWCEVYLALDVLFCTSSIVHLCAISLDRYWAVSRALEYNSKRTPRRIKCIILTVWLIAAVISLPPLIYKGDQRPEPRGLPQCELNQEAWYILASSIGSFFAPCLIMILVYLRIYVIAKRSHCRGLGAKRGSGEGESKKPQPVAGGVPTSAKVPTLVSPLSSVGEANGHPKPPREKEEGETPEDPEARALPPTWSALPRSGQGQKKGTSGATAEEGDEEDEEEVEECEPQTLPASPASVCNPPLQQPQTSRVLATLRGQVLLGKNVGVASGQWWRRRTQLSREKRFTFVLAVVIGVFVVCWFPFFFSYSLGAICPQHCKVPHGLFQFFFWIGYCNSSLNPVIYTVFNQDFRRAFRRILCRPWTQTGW
T2 sequence (P22909 whole entry): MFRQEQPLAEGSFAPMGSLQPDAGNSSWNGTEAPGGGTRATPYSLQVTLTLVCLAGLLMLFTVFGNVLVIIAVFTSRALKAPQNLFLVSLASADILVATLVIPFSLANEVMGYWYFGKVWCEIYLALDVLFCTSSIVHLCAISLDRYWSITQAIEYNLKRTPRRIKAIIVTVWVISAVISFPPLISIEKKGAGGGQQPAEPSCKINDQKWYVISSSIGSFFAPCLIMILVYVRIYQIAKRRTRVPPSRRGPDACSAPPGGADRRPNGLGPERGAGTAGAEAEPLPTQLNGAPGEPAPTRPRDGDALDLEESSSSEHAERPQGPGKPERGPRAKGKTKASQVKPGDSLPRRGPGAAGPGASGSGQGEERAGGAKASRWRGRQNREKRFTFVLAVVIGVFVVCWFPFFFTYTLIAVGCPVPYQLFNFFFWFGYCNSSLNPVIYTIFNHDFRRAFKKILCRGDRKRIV

SMILES | Ratio [1] | Ki [2] | Ki [3]
COc1ccccc1OCCN1CCN(c2ccc(=O)n(CCCCCCN3CCN(c4ccccc4Cl)CC3)n2)CC1 | 16.5 | 8.4 nM | 138.8 nM
O=C(c1ccco1)N1CCN(c2cnn(CCN3CCN(c4ccccc4Cl)CC3)c(=O)c2Cl)CC1 | 38.4 | 3.9 nM | 150 nM
COc1ccccc1OCCN1CCN(c2ccc(=O)n(CCN3CCN(c4ccccc4OC)CC3)n2)CC1 | 33.2 | 38 nM | 1261 nM
COc1ccccc1N1CCN(Cn2nc(-c3ccccc3)c3c(C)onc3c2=O)CC1 | – | 2308 nM | –
COc1ccccc1OCCN1CCN(c2cnn(CCCCCN3CCN(c4ccccc4OC)CC3)c(=O)c2Cl)CC1 | 3.8 | 3.9 nM | 15 nM
COc1ccccc1OCCN1CCN(c2cnn(CCCCCCCCN3CCN(c4ccccc4OC)CC3)c(=O)c2Cl)CC1 | 6.5 | 3.5 nM | 22.7 nM
COc1ccccc1OCCN1CCN(c2cnn(CCCCN3CCN(c4ccccc4OC)CC3)c(=O)c2Cl)CC1 | 53 | 4.3 nM | 230 nM
COc1ccccc1OCCN1CCN(c2cnn(CCCCCCCN3CCN(c4ccccc4OC)CC3)c(=O)c2Cl)CC1 | 3.2 | 1.4 nM | 4.6 nM
COc1ccccc1OCCN1CCN(c2ccc(=O)n(CCCCCN3CCN(c4ccccc4Cl)CC3)n2)CC1 | 20 | 7 nM | 138 nM
COc1ccccc1OCCN1CCN(c2ccc(=O)n(CCCCCN3CCN(c4ccccc4OC)CC3)n2)CC1 | 5.4 | 12.9 nM | 69.8 nM
COc1ccccc1N1CCN(CCn2ncc(N3CCN(C(=O)c4ccco4)CC3)c(Cl)c2=O)CC1 | 13.3 | 33 nM | 440 nM
COc1ccccc1N1CCN(CCCn2nc(-c3ccccc3)c(C(C)=O)c(N)c2=O)CC1 | – | 46.7 nM | –
COc1ccccc1N1CCN(CCCCCCn2nc(N3CCN(C(=O)c4ccco4)CC3)ccc2=O)CC1 | 5.6 | 17.8 nM | 100 nM
O=C(c1ccco1)N1CCN(c2ccc(=O)n(CCN3CCN(c4ccccc4Cl)CC3)n2)CC1 | 1.5 | 34 nM | 52.6 nM
COc1ccccc1N1CCN(CCCCn2ncc(N3CCN(C(=O)c4ccco4)CC3)c(Cl)c2=O)CC1 | 26 | 33.5 nM | 870 nM
O=C(c1ccco1)N1CCN(c2cnn(CCCCN3CCN(c4ccccc4Cl)CC3)c(=O)c2Cl)CC1 | 14.7 | 19 nM | 280 nM
COc1ccccc1OCCN1CCN(c2ccc(=O)n(CCCCN3CCN(c4ccccc4OC)CC3)n2)CC1 | 103 | 0.6 nM | 62 nM
O=C(c1ccco1)N1CCN(c2cnn(CCCN3CCN(c4ccccc4Cl)CC3)c(=O)c2Cl)CC1 | 24.3 | 3.5 nM | 85 nM

SMILES | Ratio [1] | Ki [2] | Ki [3]
COc1ccccc1OCCN1CCN(c2ccc(=O)n(CCCCCCCN3CCN(c4ccccc4OC)CC3)n2)CC1 | 20 | 2.3 nM | 45.8 nM
COc1ccccc1OCCN1CCN(c2ccc(=O)n(CCCCCCN3CCN(c4ccccc4OC)CC3)n2)CC1 | 10.2 | 7 nM | 71.8 nM
O=C(c1ccco1)N1CCN(c2ccc(=O)n(CCCCCCN3CCN(c4ccccc4Cl)CC3)n2)CC1 | 4 | 5.9 nM | 23.7 nM
O=C(c1ccco1)N1CCN(c2ccc(=O)n(CCCCN3CCN(c4ccccc4Cl)CC3)n2)CC1 | 3 | 7.9 nM | 24 nM
COc1ccccc1OCCN1CCN(c2ccc(=O)n(CCN3CCN(c4ccccc4Cl)CC3)n2)CC1 | 20.5 | 18 nM | 370 nM
COc1ccccc1OCCN1CCN(c2ccc(=O)n(CCCCN3CCN(c4ccccc4Cl)CC3)n2)CC1 | 86.7 | 0.8 nM | 69.4 nM
O=C(c1ccco1)N1CCN(c2cnn(CCCCCN3CCN(c4ccccc4Cl)CC3)c(=O)c2Cl)CC1 | 5 | 3.6 nM | 18 nM
COc1ccccc1N1CCN(CCn2nc(N3CCN(C(=O)c4ccco4)CC3)ccc2=O)CC1 | – | 94.5 nM | –
COc1ccc(Cl)cc1N1CCN(CCCn2nc(-c3ccccc3)c3c(C)onc3c2=O)CC1 | – | 7.9 nM | –
COc1ccccc1N1CCN(CCCn2ncc(N3CCN(C(=O)c4ccco4)CC3)c(Cl)c2=O)CC1 | 33.3 | 20.4 nM | 680 nM
COc1ccccc1OCCN1CCN(c2ccc(=O)n(CCCCCCCN3CCN(c4ccccc4Cl)CC3)n2)CC1 | 9.3 | 15 nM | 139 nM
COc1ccccc1N1CCN(CCCCCCCn2ncc(N3CCN(C(=O)c4ccco4)CC3)c(Cl)c2=O)CC1 | 274 | 1.9 nM | 520 nM
COc1ccccc1N1CCN(CC(=O)c2c(-c3ccccc3)nn(C)c(=O)c2N)CC1 | – | 516 nM | –
COc1ccccc1N1CCN(CCn2nc(-c3ccccc3)c3c(C)onc3c2=O)CC1 | – | 147 nM | –
COc1ccccc1N1CCN(Cn2nc(-c3ccccc3)c(C(C)=O)c(N)c2=O)CC1 | – | 2395 nM | –
COc1ccc(Cl)cc1N1CCN(CCn2nc(-c3ccccc3)c(C(C)=O)c(N)c2=O)CC1 | – | 42.7 nM | –
COc1ccc(Cl)cc1N1CCN(CCn2nc(-c3ccccc3)c3c(C)onc3c2=O)CC1 | – | 15.6 nM | –
